Test results taken from patent US12594336B2, “Trace element solution” (WARBURTON TECHNOLOGY LIMITED, priority 2012, dated 2026).

What was measured:
[1] = Physical stability study (visual inspection) of stabilizer solutions with vitamin B12 at ambient temperature; type: physicochemical
Method: Based on known injectable processes, with organometallics complex with EDTA, incorporation of vitamin B12 was screened by testing 3 possible different stabilizers. • Second Phase consists in evaluating the physical and chemical stability of the formulations which have been developed during precedent phase with the aim to select stable formulation prototypes.
Physical stability study was performed at 5° C., 25° C./60% RH and 40° C./75% RH: T0, T1, T2 and T3 months. A visual inspection was checked at different periods in order to control the absence of precipitation in the formulations. Assay of vitamin B12 was followed up on stability at 25° C./60% RH and 40° C./75% RH: T0, T3 and T6 months.
Then a quantity of stock solution of vitamin B12 was incorporated in the mix to have a final concentration of 0.15% w/v.
Physical stability study was performed on 5 and 10% w/v butaphosphan (with vitamin B12) solutions at ambient temperature: […]

[2] = Feasibility study: incorporation/solubilisation of stabilizers in the EDTA-complexed trace element solution
Excerpt: Incorporation of vitamin B12 with different stabilizers was screened.
The following concentrations of butaphosphan have been tested:

Row | physical stability, appearance ([1]; 5 and 10% w/v butaphosphan with vitamin B12 (0.15% w/v), ambient temperature, T1 week) | physical stability, appearance ([1]; 5 and 10% w/v butaphosphan with vitamin B12 (0.15% w/v), ambient temperature, T2 weeks) | physical stability, appearance ([1]; 5 and 10% w/v butaphosphan with vitamin B12 (0.15% w/v), ambient temperature, T4 weeks) | appearance of solution obtained ([2]; butaphosphan 5% w/v) | appearance of solution obtained ([2]; butaphosphan 10% w/v) | physical stability, appearance ([1]; 5 and 15% w/v glycine with vitamin B12, ambient temperature, T1 week) | physical stability, appearance ([1]; 5 and 15% w/v glycine with vitamin B12, ambient temperature, T2 weeks) | physical stability, appearance ([1]; 5 and 15% w/v glycine with vitamin B12, ambient temperature, T4 weeks) | Structure (SMILES)
1 | dark clear solution | dark clear solution | dark clear solution | dark clear solution without particles | dark clear solution without particles |  |  |  | CCCCNC(C)(C)[PH](=O)O [butaphosphan, (1-Butylamino-1-methyl-ethyl)-phosphinic acid]
2 |  |  |  |  |  | dark clear solution with particle | dark clear solution with particle | dark clear solution with particle | NCC(=O)O [glycine, Glycine]
